Source: patent US8440660B2 (Santen Pharmaceutical Co., Ltd., priority 2006, dated 2013)

What follows are compounds tested against T1, Glucocorticoid Receptor (GR) (Homo sapiens, UniProt P04150) (assay: GR receptor competitor assay by fluorescence polarization (Invitrogen GR competitor assay kit, cat No. P2816)). Conditions: 20 μM test compound solution, 10 μL per well plus 5 μL 4×GS1 and 5 μL 4×GR solution; recombinant human GR; 2 to 4 hours at room temperature; a ratio of 100% or more is indicated by 100%; read-out: GR Binding ratio (%).
T1 construct: purchased Invitrogen P2816
T1 sequence (P04150 1-777): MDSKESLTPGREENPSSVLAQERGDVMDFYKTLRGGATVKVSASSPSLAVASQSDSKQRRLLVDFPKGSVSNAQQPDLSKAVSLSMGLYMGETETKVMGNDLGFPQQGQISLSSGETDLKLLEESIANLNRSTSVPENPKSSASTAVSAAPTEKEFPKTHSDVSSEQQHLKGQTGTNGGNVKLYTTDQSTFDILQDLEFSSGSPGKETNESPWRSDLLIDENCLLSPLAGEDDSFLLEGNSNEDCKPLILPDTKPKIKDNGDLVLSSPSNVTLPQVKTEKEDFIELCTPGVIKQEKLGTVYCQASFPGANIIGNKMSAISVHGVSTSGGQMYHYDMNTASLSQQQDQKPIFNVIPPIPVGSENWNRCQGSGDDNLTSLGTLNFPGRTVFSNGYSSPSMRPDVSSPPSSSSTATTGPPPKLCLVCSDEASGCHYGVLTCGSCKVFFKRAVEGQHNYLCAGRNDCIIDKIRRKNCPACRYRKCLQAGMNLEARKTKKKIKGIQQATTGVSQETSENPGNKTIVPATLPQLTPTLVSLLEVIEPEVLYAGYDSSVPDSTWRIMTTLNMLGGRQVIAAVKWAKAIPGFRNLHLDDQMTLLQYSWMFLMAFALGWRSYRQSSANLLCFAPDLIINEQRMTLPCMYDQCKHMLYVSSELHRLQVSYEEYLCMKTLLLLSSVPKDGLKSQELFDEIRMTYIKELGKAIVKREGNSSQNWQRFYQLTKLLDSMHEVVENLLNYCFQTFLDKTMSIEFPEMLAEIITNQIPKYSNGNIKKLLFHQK
Procedure: A detailed explanation of this matter will be described in the section of “Pharmacological Test” in Examples described below. In order to find the usefulness of the present compound as a pharmaceutical, a glucocorticoid receptor competitor assay was carried out by a fluorescence polarization method by using a glucocorticoid receptor competitor assay kit (manufactured by Invitrogen, cat No P2816) to study the glucocorticoid receptor binding activity of the present compound.
1. Evaluation Test for Binding Activity to Glucocorticoid Receptor (Hereinafter Referred to as “GR”)
In order to evaluate a binding activity to GR, a receptor competitor assay was carried out by a fluorescence polarization method. In the assay, a GR competitor assay kit (manufactured by Invitrogen, cat No. P2816) was used, and a procedure was carried out according to the protocol attached to the kit. Hereinafter, the specific method will be described.
(Preparation of Reagents)
GR screening buffer: A buffer containing 10 mM potassium phosphate (pH 7.4), 20 mM sodium molybdate (Na2MoO4), 0.1 mM ethylene diamine tetraacetic acid (EDTA), 5 mM dithiothreitol (DTT), 0.1 mM stabilizing peptide and 2% dimethylsulfoxide was prepared.
4×GS1 solution: Fluormone™ GS1, which is a fluorescent glucocorticoid ligand, was diluted with GR screening buffer, whereby a 4 nM solution was prepared.
4×GR solution: Recombinant human GR was diluted with GR screening buffer, whereby a 16 nM solution was prepared.
(Preparation of Test Compound Solution)
After a test compound was dissolved in dimethylsulfoxide, the resulting solution was diluted with GR screening buffer, whereby a 20 μM test compound solution was prepared.
(Test Method and Measurement Method)
1) The test compound solution was added in an amount of 10 μL into each well of a 384-well plate, and then, 4×GS1 solution and 4×GR solution were added in an amount of 5 μL into each well, respectively.
2) The plate was incubated in a dark place at room temperature for 2 to 4 hours.
3) By using a multimode plate reader, Analyst™ HT (manufactured by LJL Biosystems), fluorescence polarization of each well was measured. As the blank, a well containing GR screening buffer in place of the test compound and 4×GS1 solution was used.
4) The same procedure as that in the above 1) to 3) was carried out except that GR screening buffer was used in place of the test compound solution, and the obtained result was taken as the negative control.
5) The same procedure as that in the above 1) to 3) was carried out except that 2 mM dexamethasone was used in place of the test compound solution, and the obtained result was taken as the positive control.
(Calculation Equation of GR Binding Ratio)
A GR binding ratio (%) was calculated from the following equation. GR binding ratio (%)=100×[1−(fluorescence polarization of test compound solution−fluorescence polarization of positive control solution)/(fluorescence polarization of negative control solution−fluorescence polarization of positive control solution)] (Test Results and Discussion)

Structure (SMILES)	inhibition at 10 µM [%]
COc1ccc([N+](=O)[O-])cc1OCc1c(-c2ccc(OC(=O)c3ccccc3Cl)cc2OC)ccc2c1C(C)=CC(C)(C)N2 [Compound 1-98, 6-[4-(2-Chlorobenzoyloxy)-2-methoxyphenyl]-5-(2-methoxy-5-nitrophenoxymethyl)-2,2,4-trimethyl-1,2-dihydroquinoline]	100
COc1cccc(C(=O)Oc2ccc(-c3ccc4c(c3COc3cc(F)ccc3C)C(C)=CC(C)(C)N4)c(OC)c2)c1 [Compound 1-7, 5-(5-Fluoro-2-methylphenoxymethyl)-6-[2-methoxy-4-(3-methoxybenzoyloxy)phenyl]-2,2,4-trimethyl-1,2-dihydroquinoline]	100
COc1cc(OC(=O)c2cccc(F)c2)ccc1-c1ccc2c(c1COc1cc(F)ccc1C)C(C)=CC(C)(C)N2 [Compound 1-60, 6-[4-(3-Fluorobenzoyloxy)-2-methoxyphenyl]-5-(5-fluoro-2-methylphenoxymethyl)-2,2,4-trimethyl-1,2-dihydroquinoline]	100
COc1cc(OC(=O)c2ccccc2)ccc1-c1ccc2c(c1COc1cc(F)ccc1C)C(C)=CC(C)(C)N2 [Compound 1-1, 6-(4-Benzoyloxy-2-methoxyphenyl)-5-(5-fluoro-2-methylphenoxymethyl)-2,2,4-trimethyl-1,2-dihydroquinoline]	94
CCCS(=O)(=O)Oc1ccc(-c2ccc3c(c2COc2cc([N+](=O)[O-])ccc2OC)C(C)=CC(C)(C)N3)c(OC)c1 [Compound 4-18, 5-(2-Methoxy-5-nitrophenoxymethyl)-6-(2-methoxy-4-propylsulfonyloxyphenyl)-2,2,4-trimethyl-1,2-dihydroquinoline]	99
COc1cc(OC(=O)c2ccncc2F)ccc1-c1ccc2c(c1COc1cc(F)ccc1C)C(C)=CC(C)(C)N2 [Compound 1-91, 5-(5-Fluoro-2-methylphenoxymethyl)-6-[4-(3-fluoropyridin-4-ylcarbonyloxy)-2-methoxyphenyl]-2,2,4-trimethyl-1,2-dihydroquinoline]	96
COc1cc(OC(=O)c2cnccc2C)ccc1-c1ccc2c(c1COc1cc(F)ccc1C)C(C)=CC(C)(C)N2 [Compound 1-70, 5-(5-Fluoro-2-methylphenoxymethyl)-6-[2-methoxy-4-(4-methylpyridin-3-ylcarbonyloxy)phenyl]-2,2,4-trimethyl-1,2-dihydroquinoline]	100
CCCS(=O)(=O)Oc1ccc(-c2ccc3c(c2COc2cc(F)ccc2C)C(C)=CC(C)(C)N3)c(OC)c1 [Compound 4-11, 5-(5-Fluoro-2-methylphenoxymethyl)-6-(2-methoxy-4-propylsulfonyloxyphenyl)-2,2,4-trimethyl-1,2-dihydroquinoline]	100
COc1cc(OC(=O)c2ccoc2)ccc1-c1ccc2c(c1COc1cc([N+](=O)[O-])ccc1C)C(C)=CC(C)(C)N2 [Compound 1-121, 6-[4-(Furan-3-ylcarbonyloxy)-2-methoxyphenyl]-5-(2-methyl-5-nitrophenoxymethyl)-2,2,4-trimethyl-1,2-dihydroquinoline]	100
COc1ccc(NC(=O)Oc2ccc(-c3ccc4c(c3COc3cc(F)ccc3C)C(C)=CC(C)(C)N4)c(OC)c2)cc1 [Compound 6-13, 5-(5-Fluoro-2-methylphenoxymethyl)-6-[2-methoxy-4-(4-methoxyphenylaminocarbonyloxy)phenyl]-2,2,4-trimethyl-1,2-dihydroquinoline]	100
COc1cc(OS(=O)(=O)CC(C)C)ccc1-c1ccc2c(c1COc1cc(F)ccc1C)C(C)=CC(C)(C)N2 [Compound 4-28, 5-(5-Fluoro-2-methylphenoxymethyl)-6-(4-isobutylsulfonyloxy-2-methoxyphenyl)-2,2,4-trimethyl-1,2-dihydroquinoline]	100
COc1cc(OC(=O)c2ccccc2SC)ccc1-c1ccc2c(c1COc1cc(F)ccc1C)C(C)=CC(C)(C)N2 [Compound 1-52]	96
COc1cc(OC(=O)N2CCOCC2)ccc1-c1ccc2c(c1COc1cc(F)ccc1C)C(C)=CC(C)(C)N2 [Compound 6-18, 5-(5-Fluoro-2-methylphenoxymethyl)-6-[2-methoxy-4-(morpholin-4-ylcarbonyloxy)phenyl]-2,2,4-trimethyl-1,2-dihydroquinoline]	100
CCCC(=O)Oc1ccc(-c2ccc3c(c2COc2cc(F)ccc2C)C(C)=CC(C)(C)N3)c(OC)c1 [Compound 1-14, 6-(4-Butyryloxy-2-methoxyphenyl)-5-(5-fluoro-2-methylphenoxymethyl)-2,2,4-trimethyl-1,2-dihydroquinoline]	100
COc1cc(OC(=O)c2ccco2)ccc1-c1ccc2c(c1COc1cc([N+](=O)[O-])ccc1C)C(C)=CC(C)(C)N2 [Compound 1-95, 6-[4-(Furan-2-ylcarbonyloxy)-2-methoxyphenyl]-5-(2-methyl-5-nitrophenoxymethyl)-2,2,4-trimethyl-1,2-dihydroquinoline]	93
COc1cc(OC(=O)c2cccnc2C)ccc1-c1ccc2c(c1COc1cc(F)ccc1C)C(C)=CC(C)(C)N2 [Compound 1-63, 5-(5-Fluoro-2-methylphenoxymethyl)-6-[2-methoxy-4-(2-methylpyridin-3-ylcarbonyloxy)phenyl]-2,2,4-trimethyl-1,2-dihydroquinoline]	100
COc1cc(OC(=O)c2ccc([N+](=O)[O-])o2)ccc1-c1ccc2c(c1COc1cc(F)ccc1C)C(C)=CC(C)(C)N2 [Compound 1-86, 5-(5-Fluoro-2-methylphenoxymethyl)-6-[2-methoxy-4-(5-nitrofuran-2-ylcarbonyloxy)phenyl]-2,2,4-trimethyl-1,2-dihydroquinoline]	91
COc1cc(OS(=O)(=O)CCC(F)(F)F)ccc1-c1ccc2c(c1COc1cc(F)ccc1C)C(C)=CC(C)(C)N2 [Compound 4-30, 5-(5-Fluoro-2-methylphenoxymethyl)-6-[2-methoxy-4-(3,3,3-trifluoroproprylsulfonyloxy)phenyl]-2,2,4-trimethyl-1,2-dihydroquinoline]	100
COc1cccc(NC(=O)Oc2ccc(-c3ccc4c(c3COc3cc(F)ccc3C)C(C)=CC(C)(C)N4)c(OC)c2)c1 [Compound 6-12, 5-(5-Fluoro-2-methylphenoxymethyl)-6-[2-methoxy-4-(3-methoxyphenylaminocarbonyloxy)phenyl]-2,2,4-trimethyl-1,2-dihydroquinoline]	98
COc1cc(OC(=O)c2ccco2)ccc1-c1ccc2c(c1COc1cc(F)ccc1C)C(C)=CC(C)(C)N2 [Compound 1-19, 5-(5-Fluoro-2-methylphenoxymethyl)-6-[4-(furan-2-ylcarbonyloxy)-2-methoxyphenyl]-2,2,4-trimethyl-1,2-dihydroquinoline]	100
COc1cc(OC(=O)NC(C)C)ccc1-c1ccc2c(c1COc1cc(F)ccc1C)C(C)=CC(C)(C)N2 [Compound 6-21, 6-(4-Isopropylaminocarbonyloxy-2-methoxyphenyl)-5-(5-fluoro-2-methylphenoxymethyl)-2,2,4-trimethyl-1,2-dihydroquinoline]	92
